Patent publication US20100173827A1, “ROLE OF PROLINE RICH PEPTIDES IN CELLULAR COMMUNICATION MECHANISMS AND TREATMENT OF DISEASES” (priority 2008, published 2010)

Key:
[1] = test system: immobilized gamma globulin (IgG-2); assay: Adsorption and desorption of ovine PRPC peptides on immobilized IgG-2 column, ELISA titer; format: binding; conditions: for Titer in pool: starting material, ELISA with mono-specific anti peptide antibody; for Desorbs (pH 5.0): titer in material eluted in pH 5.0 buffer; for Not adsorbed: titer in material not adsorbed on immobilized IgG-2 column at neutral pH
Procedure: The ovine PRPC purified as described earlier was applied on immobilized IgG-2 column at neutral pH and eluted in pH 5.0 buffer. The starting materials not adsorbed and eluted materials were tested for the presence of selected peptides by an ELISA method, using mono-specific anti peptide antibody.
Changing the pH 7.0 of the IgG column by the elution buffer of pH 5.0 releases the peptides from the immobilized gamma globulin. Since the interaction between gamma globulin and peptide is not specific, the adsorption and desorption of the peptides from PRPC confirm theory concerning storage facility No II. Furthermore, the finding supports the hypothesis that binding the triplets to macromolecule represents the new mechanism used by host to transport triplets to new cells.

[2] = test system: rabbits; assay: Immunization of rabbits with peptide antigens, antibody titer in sera; format: in vivo, rabbit; conditions: for Post immunization titers: estimated titer of the antibodies in sera from the immunized rabbits; for Before immunization: titer of the antibodies in rabbit sera before immunization
Text: The basic problem in preparation antibody for triplets and PRPC peptides is the size of antigen use for immunization purposes. Triplets by definition are made from three amino acids. Under normal condition such peptides are too small to induce the antibody production. The monospecific antibodies, however, can be made by presenting the antigen in the form of a single amino acid as an annealed antigen. The annealed antigen can be made from the same amino acid. In other approach it is possible to increase the size of antigen by repeating the same motif several times. Formation of the annealing polymer will overcome the difficulties connected with the antigen (peptide) for antibody production.
In order to make annealing it is necessary sometimes, to add to peptide empty (not active immunological) amino acids. The strategy used for production antibodies included both variants and addition of the complete Freund adjuvant. The mono-specific antibodies against various ovine PRPC antigens were prepared on rabbits. The larger animals like sheep, goat, or horse may also be utilized. Two rabbits were selected for each natural antigen.

[3] = test system: amyloid formation; assay: Amyloid formation in adult Lewis rats exposed to induced hypoxia; format: in vivo; conditions: grades 0 to +++++, key not given
Procedure: (§1) The studies leading to discovery the mechanism protecting signals was already described earlier and is repeated here in Table 11. Amino acids QT, V, and DG may serve as an example of PRP protector present in CN V. The identified peptides were synthesized by BIO-[…] Inc. Lewisville Tex. USA. Peptides were purified in to 99% of purity their amino acid sequences were confirmed. The scavengers activity ware tested in Spin trap Electromagnetic resonance and their effect on the amyloid formation was tested on adult Lewis rats exposed to induced hypoxia. […] If small structural changes in carrier peptides lead to activation their biological activity, similar changes may suppress activity or even terminate the signal. This important property is called feed back signal. Similar type of signals ought to operate within PRPC III and PRPC IV network or are coded in CN V. In Table 12 are listed peptides that may be considered as terminating signals.

[4] = Scavenger activity in Spin trap Electromagnetic resonance; format: biochemical; conditions: for Scavenger Activity: Spin trap Electromagnetic resonance
Procedure: as §1

Row | Substance | Post immunization titers [2] | Before immunization [2] | further results
1 | SPSLPQNIL [C-2, ID NO.: 25] | – | – | Titer in pool [1]: 5325; Desorbs (pH 5.0) [1]: 12800; Not adsorbed [1]: 0
2 | EMPFPKY (Ovis aries) [SEQ. ID. NO.: 21] | >25,000 | 0 | –
3 | DLEMPVLPVEPFPFV (Ovis aries) [SEQ. ID. NO.: 16] | >25,000 | 0 | –
4 | FPPPK (Ovis aries) [SEQ. ID. NO.: 15] | >25,000 | 0 | –
5 | DSQPPV (Ovis aries) [SEQ. ID. NO.: 14] | >25,000 | 0 | –
6 | VLEMKFPPPPQETVT (Ovis aries) [SEQ. ID. NO.: 3] | 12,800 | 0 | –
7 | MQPPPLP (Ovis aries) [SEQ. ID. NO.: 18] | >25,000 | 0 | –
8 | LQTPQPLLQVMMEPQGD (Ovis aries) [SEQ. ID. NO.: 1] | 12,800 | 0 | Inhibit Amyloid Formation [3]: 0; Titer in pool [1]: 5400; Desorbs (pH 5.0) [1]: 3200; Not adsorbed [1]: 800; Scavenger Activity [4]: 11%
9 | DQPPDVEKPDLQPFQVQS (Ovis aries) [B-9, ID NO.: 19] | – | – | Titer in pool [1]: 2075; Desorbs (pH 5.0) [1]: >25600; Not adsorbed [1]: 0
10 | LSQPKVLPVPQKAVPKPDMPIQ [SEQ. ID NO.: 34] | – | – | Free radical scavenger property (in words) [4]: powerful free radicals scavengers
11 | MQPPPLP (Ovis aries) [B-8, ID NO.: 18] | – | – | Titer in pool [1]: 9000; Desorbs (pH 5.0) [1]: 12800; Not adsorbed [1]: 400
12 | QPLLQVMMEPQ (Ovis aries) [SEQ. ID NO.: 10] | – | – | Scavenger Activity [4]: 75%
13 | DPPPPQS (Ovis aries) [SEQ. ID. NO.: 6] | 6,400 | 0 | –
14 | VYPFPGPIN [SEQ. ID NO.: 24] | – | – | Free radical scavenger property (in words) [4]: powerful free radicals scavengers
15 | SEEMP (Ovis aries) [SEQ. ID. NO.: 13] | >25,000 | 0 | –
16 | LSQPKVLPVPQKAVPKPDMPIQ [C-11, ID NO.: 34] | – | – | Titer in pool [1]: 15400; Desorbs (pH 5.0) [1]: >25600; Not adsorbed [1]: 400
17 | LKPFPKLKVEVFPFP (Ovis aries) [SEQ. ID. NO.: 4] | >25,600 | 0 | –
18 | VLEMKFPPPPQETVT (Ovis aries) [A-3, ID NO.: 3] | – | – | Titer in pool [1]: 1350; Desorbs (pH 5.0) [1]: 6400; Not adsorbed [1]: 400
19 | HKEMPFPKYPVEPFTESQ [SEQ. ID NO.: 28] | – | – | Free radical scavenger property (in words) [4]: powerful free radicals scavengers
20 | SEQP (Ovis aries) [SEQ. ID. NO.: 5] | >25,600 | 0 | –
21 | AFLLYQEPVLGPV [SEQ. ID. NO.: 40] | >25,000 | 0 | –
22 | AFLLYQEPVLGPV [D-1, ID NO.: 40] | – | – | Titer in pool [1]: 9300; Desorbs (pH 5.0) [1]: 6400; Not adsorbed [1]: 200
23 | DQPPDVEKPDLQPFQVQS (Ovis aries) [SEQ. ID. NO.: 19] | >25,000 | 0 | –
24 | MPQNFYKLPQM (Ovis aries) [SEQ. ID. NO.: 2] | >25,600 | 0 | –
25 | LFFFLPVVNVLP (Ovis aries) [SEQ. ID. NO.: 17] | >25,000 | 0 | –
26 | LVYPFTGPIPNSLPQNILP (Ovis aries) [SEQ. ID. NO.: 20] | >25,000 | 0 | –
27 | SPSLPQNIL [SEQ. ID NO.: 25] | – | – | Free radical scavenger property (in words) [4]: powerful free radicals scavengers
28 | LPPNVG (Ovis aries) [SEQ. ID. NO.: 12] | >25,000 | 0 | –
29 | RGPTPILV | – | – | Free radical scavenger property (in words) [4]: powerful scavenger property
